Source: patent US6495587B1, “Tricyclic indole-2-carboxylic acid compound used as NMDA receptor antagonist” (Sumitomo Pharmaceuticals Company, Limited, priority 1999, dated 2002)
Counter-ions that a name gives are not always drawn. Like-named read-outs stand apart in the source and are kept apart here.

Columns and labels:
[1] = target: T1, glycine binding site of the NMDA receptor (rat brain synaptic membrane) (Rattus norvegicus, UniProt P35439); assay: [3H]-DCKA binding test; conditions: 10 nM [3H]-DCKA, 2° C., 10 min, pH 7.4; read-out: IC50, inhibition of [3H]-DCKA binding
T1 construct: A crude rat brain synaptic membrane preparation; from tissue; host or cells: rat brain synaptic membranes (Triton X-100 treated)
Description: A crude rat brain synaptic membrane preparation was washed three time with 50 mM Tris acetate buffer (pH 7.4) and centrifuged at 50,000×g for 30 min. The pellets obtained were suspended in 0.32M sucrose solution and stored at −80° C. For binding studies, the frozen suspension was thawed, treated with 0.08-0.10% triton X-100 at 2° C. for 10 min. The membrane suspension was washed twice and centrifuged at 50,000×g for 30 min. The synaptic membrane thus prepared (ca. 100 μg of protein) was incubated with 10 nM [^3H]-5,7-dichlorokynurenic acid (DCKA) and the test compound (10 to 0.1 ng/mL) at 2° C. for 10 min in 50 mM Tris acetate buffer (pH 7.4). The incubation was terminated by suction filtration using Whatman GF/B glass filter. The radioactivity bound to the membrane on the filter was measured by scintillation counting. Non-specific binding was calculated by the radioactivity measured under the incubations in the presence cf 0.1 mM glycine.

[2] = Characteristic moisture absorption (Vapor Sorption Analyzer); type: physicochemical; conditions: 25° C.; for Water taken up by the dehydrated sample: 0% R.H. to 95% R.H. and back to 10% R.H.
Description: Characteristic moisture absorption of the crystalline hydrochloride monohydrate [C-5] and the hydrochloride [C-4] which is in the form of an amorphous powder were measured with a Vapor Sorption Analyzer MB300G-3 (VTI Corporation).
In advance of measurement, the weighed samples put in the Analyzer were dehydrated at 60° C. under reduced pressure.

[3] = system: tonic convulsions after i.c.v. administration of NMDA; assay: Anti-convulsion test (NMDA i.c.v.); type: in vivo, mice; conditions: 20 min before NMDA 5 nmol i.c.v.
Description: Twenty minutes after intravenous administration of the test compound (1 to 10 mg/kg) into each of ten mice tested, NMDA (5 nmol) was administered intracerebroventricularly (i.c.v.). […] The hydrochloride [C-4] at 10 mg/kg i.v. protected 90% of mice from tonic convulsions.

[4] = type: physicochemical; conditions: for HPLC integrated intensity (%) under 75% R.H. / HPLC integrated intensity (%) in a sealed tube: 60° C.
Description: The hydrochloride monohydrate [C-5] was kept at a temperature of 60° C., in a sealed tube or under 75% R.H.(relative humidity) for 4 weeks. Thereafter, the remaining amount of the compound was assayed with high performance liquid chromatography (HPLC).

| SMILES | IC50 [1] [nM] | Water taken up by the dehydrated sample [2] | Mice protected from tonic convulsions ([3]; 10 mg/kg i.v., ten mice) [%] | ED50 ([3]; Mus musculus, iv, mice, read-out: ED50, protection from tonic convulsions) [mg/kg] | Water taken up, theoretical weight change for one molecular equivalent ([2]; moist atmosphere) [wt %] | Increase of impurities or degradation products in HPLC charts [4] | HPLC integrated intensity (%) under 75% R.H. ([4]; 2 weeks) [%] | HPLC integrated intensity (%) under 75% R.H. ([4]; 4 weeks) [%] | HPLC integrated intensity (%) under 75% R.H. ([4]; Initial) [%] | HPLC integrated intensity (%) in a sealed tube ([4]; 2 weeks) [%] | HPLC integrated intensity (%) in a sealed tube ([4]; 4 weeks) [%] | HPLC integrated intensity (%) in a sealed tube ([4]; Initial) [%] |
| --- | --- | --- | --- | --- | --- | --- | --- | --- | --- | --- | --- | --- |
| C[C@H](Oc1cc(CN)ccc1NC(=O)C[C@@H]1CCc2cc(Cl)cc3[nH]c(C(=O)O)c1c23)C(=O)O [D-2, (3S)-7-Chloro-3-(2-((1S)-1-carboxyethoxy)-4-aminomethylphenyl)aminocarbonylmethyl-1,3,4,5-tetrahydrobenz[c.d]indole-2-carboxylic Acid Hydrochloride, reference compound] | 16 | – | – | – | – | – | – | – | – | – | – | – |
| C[C@@H](Oc1cc(CN)ccc1NC(=O)C[C@@H]1CCc2cc(Cl)cc3[nH]c(C(=O)O)c1c23)C(=O)O [C-4, (3S)-7-Chloro-3-(2-((1R)-1-carboxyethoxy)-4-aminomethylphenyl)aminocarbonylmethyl-1,3,4,5-tetrahydrobenz[c.d]indole-2-carboxylic Acid Hydrochloride] | 1.4 | more than 2.5 molecular equivalents of water | 90 | 2.3 | – | – | – | – | – | – | – | – |
| C[C@@H](Oc1cc(CN)ccc1NC(=O)C[C@@H]1CCc2cc(Cl)cc3[nH]c(C(=O)O)c1c23)C(=O)O.Cl.O [C-5] | – | one | – | – | 3.45 | did not show any increase of impurities or degradation products | 99.2 | 99.5 | 99.3 | 99.3 | 99.6 | 99.3 |
